Results reported in BigSolDB 2.1.

With `C1CNCCNCCNCCN1` the solubility (mole fraction) (in isopropanol, 298.15 K) was 0.00193, the solubility (mole fraction) (in isopropanol, 303.15 K) was 0.00202 and the solubility (mole fraction) (in isopropanol, 308.15 K) was 0.00213. For the same compound, the solubility (mole fraction) (in isopropanol, 313.15 K) was 0.00224, the solubility (mole fraction) (in isopropanol, 318.15 K) was 0.0023 and the solubility (mole fraction) (in isopropanol, 323.15 K) was 0.00249. The solubility (mole fraction) (in methanol, 298.15 K) was 0.00266, the solubility (mole fraction) (in methanol, 303.15 K) was 0.00268 and the solubility (mole fraction) (in methanol, 308.15 K) was 0.00305. The solubility (mole fraction) (in methanol, 313.15 K) was 0.00318, the solubility (mole fraction) (in methanol, 318.15 K) was 0.00321 and the solubility (mole fraction) (in methanol, 323.15 K) was 0.00328.
